Key:
Test in all cases: Bliss excess, mean over the matrix (fraction); higher = more synergy
[1] = tested on: EJM (Plasma Cell Myeloma)
In short: (§1)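 Cell lines grown in DMEM/F12 or RPMI with 10% FBS were plated in 1536-well plates and held 24 hours at 37°C, 5% CO2 before 72 hours of exposure to two-drug dose matrices, with DMSO typically at 0.2%. CellTiter-Glo 2.0 luminescence gave viability, which was converted to inhibition. Vehicle wells were set to 0 and blank wells to 1. Combination Emax is the second-highest inhibition in the matrix, and Bliss excess is the observed combination effect minus the expected EA + EB − EA·EB, where EA and EB are the single-agent effects.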

EW-1 (Ewing's Sarcoma) = tested on: EW-1 (Ewing's Sarcoma)
In short: as §1

[2] = tested on: HCC1937 (Breast Carcinoma)
In short: as §1

[3] = tested on: DU-145 (Prostate Carcinoma)
In short: as §1

[4] = tested on: MOLT-4 (T-Lymphoblastic Leukemia)
In short: as §1

[5] = tested on: Mo-T (Other Blood Carcinomas)
In short: as §1

[6] = tested on: OE33 (Esophageal Adenocarcinoma)
In short: as §1

[7] = tested on: ME-180 (Cervical Carcinoma)
In short: as §1

[8] = tested on: KMRC-1 (Kidney Carcinoma)
In short: as §1

[9] = tested on: SW982 (Other Solid Carcinomas)
In short: as §1

[10] = tested on: HCC1500 (Breast Carcinoma)
In short: as §1

[11] = tested on: NCI-H522 (Lung Adenocarcinoma)
In short: as §1

SK-N-AS (Neuroblastoma) = tested on: SK-N-AS (Neuroblastoma)
In short: as §1

[12] = tested on: EFO-21 (Ovarian Carcinoma)
In short: as §1

[13] = tested on: NCI-H1993 (Lung Adenocarcinoma)
In short: as §1

[14] = tested on: ML-2 (Acute Myeloid Leukemia)
In short: as §1

[15] = tested on: MV-4-11 (Acute Myeloid Leukemia)
In short: as §1

[16] = tested on: NCI-H1092 (Small Cell Lung Carcinoma)
In short: as §1

[17] = tested on: NCI-H1355 (Lung Adenocarcinoma)
In short: as §1

[18] = tested on: MDA-MB-453 (Breast Carcinoma)
In short: as §1

Structure (SMILES) | Bliss excess [1] | Bliss excess (EW-1 (Ewing's Sarcoma)) | Bliss excess [2] | Bliss excess [3] | Bliss excess [4] | Bliss excess [5] | Bliss excess [6] | Bliss excess [7] | Bliss excess [8] | Bliss excess [9] | Bliss excess [10] | Bliss excess [11] | Bliss excess (SK-N-AS (Neuroblastoma)) | Bliss excess [12] | Bliss excess [13] | Bliss excess [14] | Bliss excess [15] | Bliss excess [16] | Bliss excess [17] | Bliss excess [18]
CN(C)CCCOc1ccc(-c2ccc3ncc4c(c3c2)n(C2CCOCC2)c(=O)n4C)cn1 [AZD0156] + C=CCn1c(=O)c2cnc(Nc3ccc(N4CCN(C)CC4)cc3)nc2n1-c1cccc(C(C)(C)O)n1 [AZD1775] (first compound max 1 µM, partner max 1 µM) | -0.0266 | -0.0281 | -0.0734 | -0.0236 | 0.0118 | -0.0599 | 0.0402 | -0.0787 | -0.0216 | -0.0676 | 0.0408 | -0.0131 | -0.0492 | -0.0369 | -0.0699 | -0.014 | -0.0306 | -0.0351 | -0.0472 | -0.0736
CN(C)CCCOc1ccc(-c2ccc3ncc4c(c3c2)n(C2CCOCC2)c(=O)n4C)cn1 [AZD0156] + CCN(CCO)CCCOc1ccc2c(Nc3cc(CC(=O)Nc4cccc(F)c4)[nH]n3)ncnc2c1 [AZD2811] (first compound max 1 µM, 7x7, partner max 1 µM) | 0.0008 | 0.0446 | -0.0387 | -0.0263 | 0.0107 | -0.0898 | -0.0173 | -0.0143 | -0.0251 | -0.0042 | -0.0563 | -0.0201 | -0.014 | -0.0506 | -0.0335 | -0.0594 | -0.0383 | -0.0102 | -0.0599 | -0.0208
CN(C)CCCOc1ccc(-c2ccc3ncc4c(c3c2)n(C2CCOCC2)c(=O)n4C)cn1 [AZD0156] + C[C@@H]1COCCN1C2=NC(=NC(=C2)C3(CC3)[S@](=N)(=O)C)C4=C5C=CNC5=NC=C4 [AZD6738] (first compound max 1 µM, 7x7, partner max 10 µM) | 0.0266 | 0.042 | -0.0386 | -0.0233 | 0.0033 | -0.0382 | -0.0451 | -0.0468 | -0.0496 | -0.0507 | -0.0112 | -0.0258 | -0.0108 | -0.0206 | -0.0329 | -0.0248 | -0.06 | -0.0427 | -0.0234 | -0.0229
CN(C)CCCOc1ccc(-c2ccc3ncc4c(c3c2)n(C2CCOCC2)c(=O)n4C)cn1 [AZD0156] + O=C(c1cc(Cc2n[nH]c(=O)c3ccccc23)ccc1F)N1CCN(C(=O)C2CC2)CC1 [Olaparib] (first compound max 3 µM, partner max 3 µM) | 0.0719 | 0.231 | 0.0316 | -0.0462 | 0.123 | -0.046 | 0.0228 | 0.0444 | -0.0316 | 0.0903 | 0.0055 | -0.0273 | -0.0959 | -0.0149 | -0.0191 | 0.117 |  | 0.0028 | 0.0176 | -0.0266
C=CCn1c(=O)c2cnc(Nc3ccc(N4CCN(C)CC4)cc3)nc2n1-c1cccc(C(C)(C)O)n1 [AZD1775] + C1CN(CCC1(C(=O)N[C@@H](CCO)C2=CC=C(C=C2)Cl)N)C3=NC=NC4=C3C=CN4 [Capivasertib] (first compound max 3 µM, partner max 3 µM) | -0.0041 | 0.0379 | -0.0385 | -0.055 | 0.0536 | -0.05 | -0.0326 | 0.0063 | -0.0762 | -0.0415 | -0.0462 | -0.0028 | -0.0806 | -0.0991 | -0.0096 | -0.0148 |  | -0.0497 | 0.0046 | -0.0524
C=CCn1c(=O)c2cnc(Nc3ccc(N4CCN(C)CC4)cc3)nc2n1-c1cccc(C(C)(C)O)n1 [AZD1775] + C[C@@H]1COCCN1C2=NC(=NC(=C2)C3(CC3)[S@](=N)(=O)C)C4=C5C=CNC5=NC=C4 [AZD6738] (first compound max 1 µM, partner max 10 µM) | -0.0079 | 0.0194 | -0.0717 | 0.02 | 0.0397 | -0.0271 | -0.0081 | -0.0022 | -0.002 | -0.019 | 0.0279 | 0.0006 | 0.0189 | -0.0492 | -0.0727 | 0.0095 | -0.0103 | 0.0124 | 0.0055 | 0.0214
C=CCn1c(=O)c2cnc(Nc3ccc(N4CCN(C)CC4)cc3)nc2n1-c1cccc(C(C)(C)O)n1 [AZD1775] + O=C(c1cc(Cc2n[nH]c(=O)c3ccccc23)ccc1F)N1CCN(C(=O)C2CC2)CC1 [Olaparib] (first compound max 1 µM, partner max 10 µM) | -0.0429 | -0.0235 | -0.0813 | -0.073 | 0.0101 | -0.0418 | 0.0117 | -0.0244 | -0.0224 | -0.102 | 0.0158 | 0.0441 | -0.0075 | -0.0266 | -0.0631 | 0.0099 | 0.0445 | -0.0342 | -0.0671 | -0.0441
CCN(CCO)CCCOc1ccc2c(Nc3cc(CC(=O)Nc4cccc(F)c4)[nH]n3)ncnc2c1 [AZD2811] + C=CCn1c(=O)c2cnc(Nc3ccc(N4CCN(C)CC4)cc3)nc2n1-c1cccc(C(C)(C)O)n1 [AZD1775] (first compound max 1 µM, partner max 1 µM) | -0.0443 | -0.0026 | -0.0331 | -0.0116 | 0.0151 | -0.0252 | 0.0006 | -0.0356 | 0.0036 | -0.0501 | -0.0098 | 0.02 | 0.0108 | -0.062 | 0.0219 | -0.102 | -0.0626 | -0.0183 | -0.0067 | 0.0236
CCN(CCO)CCCOc1ccc2c(Nc3cc(CC(=O)Nc4cccc(F)c4)[nH]n3)ncnc2c1 [AZD2811] + C[C@@H]1COCCN1C2=NC(=NC(=C2)C3(CC3)[S@](=N)(=O)C)C4=C5C=CNC5=NC=C4 [AZD6738] (first compound max 1 µM, 7x7, partner max 10 µM) | -0.0286 | 0.0268 | -0.0972 | -0.0535 | -0.0208 | -0.0188 | -0.0167 | -0.0385 | -0.042 | -0.0585 | -0.007 | -0.0123 | -0.0365 | -0.0656 | -0.0726 | -0.0428 | -0.0118 | -0.0308 | -0.112 | -0.0352
CN(CCO)CC[C@H](CSc1ccccc1)Nc1ccc(S(=O)(=O)NC(=O)c2ccc(N3CCC([C@@H](O)c4ccccc4-c4ccc(Cl)cc4)CC3)cc2)cc1S(=O)(=O)C(F)(F)F [AZD4320] + C=CCn1c(=O)c2cnc(Nc3ccc(N4CCN(C)CC4)cc3)nc2n1-c1cccc(C(C)(C)O)n1 [AZD1775] (first compound max 1 µM, partner max 1 µM) | 0.0256 | 0.0581 | 0.0878 | -0.0308 | 0.0674 | 0.0529 | -0.0093 | -0.0304 | 0.0036 | 0.0247 | 0.11 | -0.0299 | -0.0292 | -0.078 | 0.0951 | -0.0228 |  | 0.0527 | 0.0162 | 0.047
Cc1c2c(nn1C)CSCc1cc(n(C)n1)CSc1cc(c3ccccc3c1)OCCCc1c(C(=O)O)n(C)c3c-2c(Cl)ccc13 [AZD5991] + CCN(CCO)CCCOc1ccc2c(Nc3cc(CC(=O)Nc4cccc(F)c4)[nH]n3)ncnc2c1 [AZD2811] (first compound max 1 µM, 7x7, partner max 1 µM) | 0.0504 | 0.0979 | -0.0028 | -0.0282 | -0.0126 | -0.0109 | -0.002 |  | 0.0096 | -0.0578 | 0.0466 | 0.111 | 0.0414 | -0.0065 | -0.0072 | -0.0122 | -0.0046 | 0.0479 | -0.0466 | 0.125
CS(=O)(=O)CCNCc1ccc(-c2ccc3ncnc(Nc4ccc(OCc5cccc(F)c5)c(Cl)c4)c3c2)o1 [Lapatinib] + NC1(c2ccc(-c3nc4ccn5c(=O)[nH]nc5c4cc3-c3ccccc3)cc2)CCC1 [MK-2206] (first compound max 10 µM, 7x7, partner max 10 µM) |  |  | -0.0343 | -0.0235 | 0.0866 | 0.0719 | -0.0133 | 0.0315 | 0.0098 | -0.0099 | 0.0415 | -0.0313 | -0.0327 | 0.0024 | -0.0147 | 0.0017 | 0.0371 | 0.0182 | 0.0319 | 0.0474
CCc1c2c(nc3ccc(O)cc13)-c1cc3c(c(=O)n1C2)COC(=O)[C@]3(O)CC [SN-38] + O=C(c1cc(Cc2n[nH]c(=O)c3ccccc23)ccc1F)N1CCN(C(=O)C2CC2)CC1 [Olaparib] (first compound max 0.3 µM, 7x7, partner max 10 µM) | 0.0404 | 0.0642 |  | 0.0282 | 0.0881 | 0.0236 | 0.0383 | 0.0915 | 0.0508 | 0.0384 | 0.051 | 0.0909 | 0.096 | 0.0601 | 0.0628 | 0.0633 | 0.0486 | -0.0076 | 0.0271 | 0.0456
Cc1nc(-c2cn3c(n2)-c2ccc(-c4cnn(C(C)(C)C(N)=O)c4)cc2OCC3)n(C(C)C)n1 [Taselisib] + O=C(Nc1ccc2[nH]nc(-c3ccncc3)c2c1)[C@@H]1CCN(CC(=O)N2CCN(c3ccc(-c4ncccn4)cc3)CC2)C1 [SCH772984] (first compound max 10 µM, 7x7, partner max 5 µM) |  |  |  | 0.0551 | 0.13 | 0.0526 | 0.0674 | 0.0324 | -0.0377 | -0.0167 |  | 0.057 | 0.0187 | 0.0446 | 0.111 | 0.101 | 0.177 |  | -0.0124 | 0.0207
CC1(C)CCC(CN2CCN(c3ccc(C(=O)NS(=O)(=O)c4ccc(NCC5CCOCC5)c([N+](=O)[O-])c4)c(Oc4cnc5[nH]ccc5c4)c3)CC2)=C(c2ccc(Cl)cc2)C1 [Venetoclax] + CS(=O)(=O)CCNCc1ccc(-c2ccc3ncnc(Nc4ccc(OCc5cccc(F)c5)c(Cl)c4)c3c2)o1 [Lapatinib] (first compound max 1 µM, 7x7, partner max 10 µM) |  |  |  | -0.0511 | 0.0967 | -0.0092 | -0.0315 | 0.0153 | -0.0584 | -0.0456 |  | -0.0378 | -0.0432 | -0.0323 | -0.0311 | 0.146 | 0.0293 |  | -0.0548 | -0.0106

Source: the supplement of paper PMC11061612
